Results taken from article PMC12389155 (Pharmaceuticals, 2025).

Columns and labels:
[1] = tested on: HCT 116 cells; assay: MTT cytotoxicity assay in HCT 116 colorectal cancer cells; assay type: cell-based; conditions: Homo sapiens, HCT 116, 48 h exposure, ± SEM, read-out: IC50 (cytotoxic activity)
Procedure: (§1) The colorectal cancer cell line HCT 116 (ATCC CCL-247) was grown in Roswell Park Memorial Institute 1640 Medium (RPMI, Biochrom Ltd., Cambridge, UK), and the breast cancer cell line MDA-MB-231 (ATCC HTB-26, American Type Culture Collection, Manassas, VA, USA) was maintained in Dulbecco’s Modified Eagle Medium (DMEM, Biochrom Ltd., Cambridge, UK) supplemented with 10% (v/v) fetal bovine serum (FBS, Biochrom Ltd., Cambridge, UK) and 1% (v/v) penicillin-streptomycin (p/s, Biochrom) on tissue-culture-treated flasks. The human fibroblast BJ-5ta cell line (ATCC CRL-2522) was grown in a 4:1 proportion of DMEM:Medium 199 (PAN-Biotech GmbH, Aidenbach, Germany), supplemented with 10% (v/v) FBS, 1% (v/v) p/s, and 0.01% (v/v) hygromycin B (Sigma-Aldrich, St. Louis, MO, USA). All cell lines were authenticated and tested for mycoplasma contamination. Cells were incubated at 37 °C with 5% CO2 and 95% relative humidity. […] Cell counts were determined using a hemocytometer. […]
(§2) After the incubation period, the culture media was discarded from each well, and 100 µL (0.5 mg/mL) was added. […] Cell viability was determined based on the absorbance measured at 570 nm using a microplate reader (Cytation 3, BioTek Instruments, Winooski, VT, USA). The absorbance of untreated cells or DMSO-treated cells was considered at 100% cell viability. […]

[2] = tested on: MDA-MB-231 cells; assay: MTT cytotoxicity assay in MDA-MB-231 triple-negative breast cancer cells; assay type: cell-based; conditions: Homo sapiens, MDA-MB-231, 48 h exposure, ± SEM, read-out: IC50 (cytotoxic activity)
Procedure: as §1, §2

[3] = tested on: COR-L23 cells; set-up: method as in PMID 21366300; conditions: COR-L23 lung cancer cells; read-out: IC50 nucleoside-nucleobase transport inhibition; cited from earlier work
[4] = Aqueous solubility; assay type: physicochemical
[5] = tested on: EGFR; set-up: method as in PMID 22753156, PMID 15199094; conditions: cited from earlier work

SMILES	IC50 [1]	IC50 [2]	IC50 [3]	also measured
O=c1[nH]cc(F)c(=O)[nH]1 [5-FU, 5-Fluorouracil]	10400 ± 680 nM	183000 ± 17100 nM		
COc1ccc(CCc2nc(NCC(C)O)nc3c(NCc4ccc(OC)c(OC)c4)nc(CCC(C)OC(=O)Nc4ccccc4)nc23)cc1OC (stereo not drawn) [IV]			8 nM	
O=C(NNc1ncnc2c(Nc3ccc(OC(F)(F)F)cc3)ncnc12)c1ccccc1 [PP, N’-(8-((4-(Trifluoromethoxy)phenyl)amino)pyrimido[5,4-d]pyrimidin-4-yl)benzohydrazide]	2040 ± 450 nM	5240 ± 240 nM		Solubility in aqueous medium [4]: poor solubility in aqueous medium
COc1ccc(NC(=O)OC(C)CCc2nc(NCc3ccc(OC)c(OC)c3)c3nc(NCC(C)OC(=O)CCC(=O)O)nc(CCc4ccc(OC)c(OC)c4)c3n2)cc1 (stereo not drawn) [VI]			7 nM	
COc1ccc(NC(=O)OC(C)CCc2nc(NCc3ccc(OC)c(OC)c3)c3nc(NCC(C)O)nc(CCc4ccc(OC)c(OC)c4)c3n2)cc1 (stereo not drawn) [V]			4 nM	
CCN(CC)CC1CCN(c2ncc3ncnc(Nc4ccc(F)c(Cl)c4)c3n2)CC1 [compound III]				Activity as EGFR tyrosine kinase inhibitors [5]: nanomolar range
